Molecular target: Vanin-1 (Homo sapiens (Human), UniProt O95497)
Assay: VNN1 inhibitor binding assay (Pantothenate-AMC fluorescence)
Format: biochemical
Conditions: not given
Experimental: Vanin-1 inhibitor binding assays for selected compounds as described herein, and reference compound RR6 (also “(R)-2,4-dihydroxy-3,3-dimethyl-N-(3-oxo-4-phenylbutyl)butanamide”) were examined and the IC50 values of were determined.
5 μL of 3× (45 μM) of Pantothenate-AMC to achieve final concentrations of 15 μM (0.25% DMSO final) were added in a 384 well assay plate followed by the addition of 5 μL of 3× the desired concentration of the tested compounds (Compound 1; Compound 2; and RR6) in 0.75% DMSO to designated wells (0.25% of DMSO final). The range of the compound concentrations tested was 10, 3.33, 1.11, 0.37, 0.12, 0.04, 0.01, 0.0046, 0.001, and 0.0005 μM. 5 μL of 0.75% DMSO were also added to positive and negative control wells.
5 μL of 1.4 ng/μL Vanain-1 was added to the assay plate to achieve a final amount of 7 ng/well, and covered with plate sealer. Another 5 μL of assay buffer was added to negative controls and the assay plate was then centrifuged briefly (1000 rpm for 30 s) in a plate centrifuge. The assay plate was incubated in the dark for 20 minutes at room temperature and immediately read on an Envision 2105, PerkinElmer multimode plate reader.
The fluorescence read was captured at excitation wavelength of 355 nm and emission wavelength of 460 nm. Percent inhibition of the test compounds was calculated using the following equation: […]
In the above equation, “A” is the relative fluorescence units of the test compound (test compound+Pantothenate-AMC+Vanin1); “B” is the relative fluorescence units of the average minimum (DMSO+Pantothenate-AMC+assay buffer); and “C” is the relative fluorescence units of the average maximum (DMSO+Pantothenate-AMC+Vanin1).

Chain of Vanin-1 (O95497 22-513): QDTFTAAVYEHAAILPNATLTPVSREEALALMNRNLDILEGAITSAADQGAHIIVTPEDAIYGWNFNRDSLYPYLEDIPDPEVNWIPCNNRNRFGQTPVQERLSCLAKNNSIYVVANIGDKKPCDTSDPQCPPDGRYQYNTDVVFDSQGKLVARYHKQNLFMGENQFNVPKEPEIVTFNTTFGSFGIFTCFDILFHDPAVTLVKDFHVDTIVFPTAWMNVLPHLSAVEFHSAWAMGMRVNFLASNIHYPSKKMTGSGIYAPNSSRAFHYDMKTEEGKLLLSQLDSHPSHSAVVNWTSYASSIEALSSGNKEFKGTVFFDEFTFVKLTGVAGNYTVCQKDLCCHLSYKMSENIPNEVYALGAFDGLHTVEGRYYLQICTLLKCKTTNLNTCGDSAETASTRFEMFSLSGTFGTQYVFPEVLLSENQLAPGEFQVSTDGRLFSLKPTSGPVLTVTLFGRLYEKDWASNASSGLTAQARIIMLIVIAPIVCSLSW

Row | Compound | IC50
1 | CC(C)(CO)[C@@H](O)C(=O)NCCC(=O)Cc1ccccc1 [RR6, (R)-2,4-dihydroxy-3,3-dimethyl-N-(3-oxo-4-phenylbutyl)butanamide, reference compound] | 1 to 10 µM

Same assay, conditions: 15 μM Pantothenate-AMC, 7 ng/well Vanin-1, 20 minutes at room temperature; read-out: Vanin-1 IC50

Row | IC50 | Compound
2 | 1 to 10 µM | CN(C)C(C)(C)CN1Cc2nc(NCc3cccnc3)ccc2C1=O [Compound 12, 6-(2-(Dimethylamino)-2-methylpropyl)-2-((pyridin-3-ylmethyl)amino)-6,7-dihydro-5H-pyrrolo[3,4-b]pyridin-5-one]
3 | 1 to 10 µM | CCC(=O)NCCN1Cc2nc(NCc3cnccc3C(F)(F)F)ccc2C1=O [Compound 74, N-(2-(5-oxo-2-(((4-(trifluoromethyl)pyridin-3-yl)methyl)amino)-5,7-dihydro-6H-pyrrolo[3,4-b]pyridin-6-yl)ethyl)propionamide]
4 | 1 to 10 µM | CC(C)N1Cc2nc(NCc3cccnc3)ccc2C1=O [Compound 19]
5 | 1 to 10 µM | CCC(=O)NCCN1Cc2nc(NCc3ccc(F)cc3C)ccc2C1=O [Compound 78, N-(2-(2-((4-fluoro-2-methylbenzyl)amino)-5-oxo-5,7-dihydro-6H-pyrrolo[3,4-b]pyridin-6-yl)ethyl)propionamide]
6 | 1 to 10 µM | CC(=O)NCCN1Cc2nc(NCc3ccncc3)ccc2C1=O [Compound 27, N-(2-(5-oxo-2-((pyridin-4-ylmethyl)amino)-5,7-dihydro-6H-pyrrolo[3,4-b]pyridin-6-yl)ethyl)acetamide]
7 | 1 to 10 µM | CC(=O)NCCN1Cc2nc(NCc3cncc(F)c3)ccc2C1=O [Compound 26, N-(2-(2-(((5-fluoropyridin-3-yl)methyl)amino)-5-oxo-5,7-dihydro-6H-pyrrolo[3,4-b]pyridin-6-yl)ethyl)acetamide]
8 | > 10 µM | O=C1c2ccc(NCc3cccnc3)nc2CN1c1ccccc1 [Compound 11]
9 | 1 to 10 µM | CC(=O)NCCN1Cc2nc(NCc3cnccn3)ccc2C1=O [Compound 50]
10 | > 10 µM | CC(=O)NCCN1Cc2nc(N[C@H](C)c3cccnc3)ccc2C1=O [Compound 22, (R)—N-(2-(5-oxo-2-((1-(pyridin-3-yl)ethyl)amino)-5,7-dihydro-6H-pyrrolo[3,4-b]pyridin-6-yl)ethyl)acetamide]
11 | 1 to 10 µM | CN(C)CCN1Cc2nc(NCc3cccnc3)ccc2C1=O [Compound 4, 6-(2-(Dimethylamino)ethyl)-2-((pyridin-3-ylmethyl)amino)-6,7-dihydro-5H-pyrrolo[3,4-b]pyridin-5-one]
12 | 1 to 10 µM | CC(=O)NCCN1Cc2nc(NCc3cc(F)c(F)c(F)c3)ccc2C1=O [Compound 71, N-(2-(5-oxo-2-((3,4,5-trifluorobenzyl)amino)-5,7-dihydro-6H-pyrrolo[3,4-b]pyridin-6-yl)ethyl)acetamide]
13 | 1 to 10 µM | CN(C)CCCN1Cc2nc(NCc3cccnc3)ccc2C1=O [Compound 13, 6-(3-(Dimethylamino)propyl)-2-((pyridin-3-ylmethyl)amino)-6,7-dihydro-5H-pyrrolo[3,4-b]pyridin-5-one]
14 | 1 to 10 µM | CC(=O)NCCCN1Cc2nc(NCc3cccnc3)ccc2C1=O [Compound 15, N-(3-(5-Oxo-2-((pyridin-3-ylmethyl)amino)-5,7-dihydro-6H-pyrrolo[3,4-b]pyridin-6-yl)propyl)acetamide]
15 | 1 to 10 µM | COc1ccc(F)cc1CNc1ccc2c(n1)CN(CCNC(C)=O)C2=O [Compound 29, N-(2-(2-((5-fluoro-2-methoxybenzyl)amino)-5-oxo-5,7-dihydro-6H-pyrrolo[3,4-b]pyridin-6-yl)ethyl)acetamide]
16 | > 10 µM | N#Cc1cncc(CNc2ccc3c(n2)CN(CCNC(=O)C2CC2)C3=O)c1 [Compound 43, N-(2-(2-(((5-cyanopyridin-3-yl)methyl)amino)-5-oxo-5,7-dihydro-6H-pyrrolo[3,4-b]pyridin-6-yl)ethyl)cyclopropanecarboxamide]
17 | 1 to 10 µM | O=C1NCCc2nc(NCc3cccnc3)ccc21 [Compound 2, 2-((Pyridin-3-ylmethyl)amino)-7,8-dihydro-1,6-naphthyridin-5(6H)-one]
18 | 1 to 10 µM | CC(=O)NCCN1Cc2nc(NCc3ccc(C#N)nc3)ccc2C1=O [Compound 40, N-(2-(2-(((6-cyanopyridin-3-yl)methyl)amino)-5-oxo-5,7-dihydro-6H-pyrrolo[3,4-b]pyridin-6-yl)ethyl)acetamide]
19 | 1 to 10 µM | CCC(=O)NCCN1Cc2nc(NCc3cc(F)c(F)c(F)c3)ccc2C1=O [Compound 72, N-(2-(5-oxo-2-((3,4,5-trifluorobenzyl)amino)-5,7-dihydro-6H-pyrrolo[3,4-b]pyridin-6-yl)ethyl)propionamide]
20 | 1 to 10 µM | O=C1c2ccc(NCc3cccnc3)nc2CN1Cc1cnccn1 [Compound 17]
21 | 1 to 10 µM | CC(=O)NC(C)(C)CN1Cc2nc(NCc3cccnc3)ccc2C1=O [Compound 38, N-(2-methyl-1-(5-oxo-2-((pyridin-3-ylmethyl)amino)-5,7-dihydro-6H-pyrrolo[3,4-b]pyridin-6-yl)propan-2-yl)acetamide]
22 | 1 to 10 µM | COc1ccccc1CNc1ccc2c(n1)CN(CCNC(C)=O)C2=O [Compound 28, N-(2-(2-((2-methoxybenzyl)amino)-5-oxo-5,7-dihydro-6H-pyrrolo[3,4-b]pyridin-6-yl)ethyl)acetamide]

Same assay, conditions: comparison with reference compound RR6

Row | Compound | potency (half-maximal inhibitory concentration) compared to RR6
23 | O=C1NCCc2nc(NCc3cccnc3)ccc21 [Compound 2, 2-((Pyridin-3-ylmethyl)amino)-7,8-dihydro-1,6-naphthyridin-5(6H)-one] | comparable to RR6
24 | O=C1NCc2nc(NCc3cccnc3)ccc21 [Compound 1, 2-((Pyridin-3-ylmethyl)amino)-6,7-dihydro-5H-pyrrolo[3,4-b]pyridin-5-one] | up to two orders of magnitude greater than RR6

System: not listed separately
Assay: PAMPA permeability assay
Format: in vitro ADME
Conditions: 20 μM donor in PBS/MeOH 90:10, 5 hours at room temperature
Excerpt: Parallel artificial membrane permeability (PAMPA) assay is a non-cell based assay designed to predict in vivo biological membrane permeability of drugs in early stage of drug discovery. The 96-well Corning Gentest Pre-coated PAMPA Plate System (catalog no. 353015) was used to perform the assay. The Corning Gentest Pre-coated PAMPA plate system was designed by 96-well insert system with a […] PVDF (polyvinylidene fluoride) filter plate which has been pre-coated with structured tri-layers of phospholipids (lipid/oil/lipid) and a matched receiver microplate.
Donor solutions of test compounds (300 μL, 20 μM in PBS/MeOH 90:10) were added to each well of the donor plate. 200 μL of PBS/MeOH 90:10 was added to each well of the acceptor plate. The acceptor plate was coupled with the donor plate and incubated for 5 hours at room temperature (RT) without agitation. In each plate, compounds were tested in triplicate. At the end of the incubation, drug concentration in the initial donor solution, acceptor and the donor wells were determined using LC/MS/MS. A five (5) points standard curve from 0.1 to 1000 nM for each test compound were prepared. Analyte samples were diluted to within standard curve concentration with ACN/H2O 50:50 prior analysis.
All samples were analyzed by electrospray ionization (ESI) liquid chromtograph/mass spectrometry (LC/MS) system utilizing Sciex 5500 quadropule ion trap (Qtrap) mass spectrometry with Shidmazu Nexera X2 UHPLC. The LC-MS/MS instrument monitored each of the test compound in the study based of their respective mass-to-charge (m/z) transitions and MS parameters. Chromatographic separation was achieved on Phenomenex Luna C18 column (50×2.0 mm, 3 μm particle size) by using a gradient elution: mobile phase A contains 0.1% formic acid in water and mobile phase B contains 0.1% formic acid in acetonitrile; A/B (99:1) from 0 to 1 minutes; to A/B (1:99) from 1 to 4 minutes; A/B (1:99) from 4 to 8 minutes; to A/B (99:1) from 8 to 8.20 minutes; A/B (99:1) from 8.2 to 9 minutes. The flow rate was 0.4 mL/min and the column temperature was maintained at 35° C. and autosampler temperature at 4° C. For detection, the electrospray ionization operated in the positive mode using multiple reaction monitoring (MRM).
Data acquisition, and peak integrations were obtained by Analyst® Version 1.7.1 (Sciex) operating with Windows® (Microsoft). The standard curve regressions and sample concentrations were generated and calculated by Analyst®. Concentrations in the sample solutions were determined based on the measured peak area ratios from the response of the analyte to the internal standard with reference to the standard calibration curve. All sample calculations were calculated using a linear regression with 1/x2 weighting (where x is the concentration of given calibration standard level).
Permeability of the test compounds was calculated using the following formula:
Where: • A=filter area=[…] • VA=acceptor well volume (0.2 mL) • VD=donor well volume […], • t=incubation time=5 hours=18000 seconds, • CA(t)=compound concentration in acceptor well at time t (nM), • CD(t)=compound concentration in donor well at time t (nM), and […]

Row | Papp at 5 h, 20 µM | Compound
25 | 1.83 ×10⁻⁶ cm/s | [2H]C([2H])([2H])C(=O)NCCN1Cc2nc(NCc3c(F)cc(F)cc3F)ccc2C1=O [Compound 202, N-(2-(5-oxo-2-((2,4,6-trifluorobenzyl)amino)-5,7-dihydro-6H-pyrrolo[3,4-b]pyridin-6-yl)ethyl)acetamide-2,2,2-d3]
26 | 1.07 ×10⁻⁶ cm/s | [2H]C([2H])([2H])C([2H])([2H])C(=O)NCCN1Cc2nc(NCc3c(F)cc(F)cc3F)ccc2C1=O [Compound 204, N-(2-(5-oxo-2-((2,4,6-trifluorobenzyl)amino)-5,7-dihydro-6H-pyrrolo[3,4-b]pyridin-6-yl)ethyl)propenamide-d5]
27 | 0.79 ×10⁻⁶ cm/s | CCC(=O)NCCN1Cc2nc(NCc3c(F)cc(F)cc3F)ccc2C1=O [Compound 73, N-(2-(5-oxo-2-((2,4,6-trifluorobenzyl)amino)-5,7-dihydro-6H-pyrrolo[3,4-b]pyridin-6-yl)ethyl)propionamide]
28 | 0.68 ×10⁻⁶ cm/s | CC(=O)NCCN1Cc2nc(NCc3c(F)cc(F)cc3F)ccc2C1=O [Compound 37, N-(2-(5-oxo-2-((2,4,6-trifluorobenzyl)amino)-5,7-dihydro-6H-pyrrolo[3,4-b]pyridin-6-yl)ethyl)acetamide]

Same assay, conditions: deuterated vs non-deuterated (Compounds 37 and 73, respectively)

Row | permeability compared to non-deuterated counterparts | Compound
29 | improved permeability | [2H]C([2H])([2H])C(=O)NCCN1Cc2nc(NCc3c(F)cc(F)cc3F)ccc2C1=O [Compound 202, N-(2-(5-oxo-2-((2,4,6-trifluorobenzyl)amino)-5,7-dihydro-6H-pyrrolo[3,4-b]pyridin-6-yl)ethyl)acetamide-2,2,2-d3]
30 | improved permeability | [2H]C([2H])([2H])C([2H])([2H])C(=O)NCCN1Cc2nc(NCc3c(F)cc(F)cc3F)ccc2C1=O [Compound 204, N-(2-(5-oxo-2-((2,4,6-trifluorobenzyl)amino)-5,7-dihydro-6H-pyrrolo[3,4-b]pyridin-6-yl)ethyl)propenamide-d5]

— patent US20250066353A1, “VANIN-1 INHIBITORS” (ATHOS THERAPEUTICS, INC., priority 2023, published 2025)
